Data published in PubChem BioAssay AID248 (DTP/NCI, 2004).
Values joined by “and” are separate entries in the source; they are usually repeats but may differ in a detail not shown here. Identical values can stand only once. Toxic doses and inconclusive results are not listed. Cut-off read from the data, not from the text of the source: active = T/C of 150% or more; inactive = T/C below 125%. Peptide text beside a SMILES is read from it. * marks the point of attachment. Cbz = O=C(OCc1ccccc1)*; NHNH2 = NN*

System: L1210 leukemia ip in BDF1 mice, survival T/C
Test: NCI In Vivo Anticancer Drug Screen. Data for tumor model L1210 Leukemia (intraperitoneal) in B6D2F1 (BDF1) mice
Conditions: endpoint: mean survival time, higher = longer survival
Method in brief: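 Tumor cells were implanted, animals were treated, and survival was followed. The result divides the treated measurement by the vehicle-control measurement.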

[1] = dose: 5.0 mg/kg/injection, schedule: Q01DX001 (ip), vehicle: saline
[2] = dose: 10.0 mg/kg/injection, schedule: Q01DX001 (ip), vehicle: saline
[3] = dose: 20.0 mg/kg/injection, schedule: Q01DX001 (ip), vehicle: saline
[4] = dose: 100.0 mg/kg/injection, schedule: Q01DX001 (ip), vehicle: saline
[5] = dose: 200.0 mg/kg/injection, schedule: Q01DX001 (ip), vehicle: saline
[6] = dose: 100.0 mg/kg/injection, schedule: Q04DX003 (ip), vehicle: saline with Tween-80
[7] = dose: 200.0 mg/kg/injection, schedule: Q04DX003 (ip), vehicle: saline with Tween-80
[8] = dose: 400.0 mg/kg/injection, schedule: Q04DX003 (ip), vehicle: saline with Tween-80
[9] = dose: 100.0 mg/kg/injection, schedule: Q01DX009 (ip), vehicle: saline sonified
[10] = dose: 100.0 mg/kg/injection, schedule: Q04DX003 (ip), vehicle: Klucel (hydroxypropylcellulose) (HPC)
[11] = dose: 200.0 mg/kg/injection, schedule: Q01DX009 (ip), vehicle: saline sonified
[12] = dose: 200.0 mg/kg/injection, schedule: Q04DX003 (ip), vehicle: Klucel (hydroxypropylcellulose) (HPC)
[13] = dose: 400.0 mg/kg/injection, schedule: Q04DX003 (ip), vehicle: Klucel (hydroxypropylcellulose) (HPC)
[14] = dose: 100.0 mg/kg/injection, schedule: Q01DX009 (ip), vehicle: saline with Tween-80
[15] = dose: 200.0 mg/kg/injection, schedule: Q01DX009 (ip), vehicle: saline with Tween-80
[16] = dose: 400.0 mg/kg/injection, schedule: Q01DX009 (ip), vehicle: saline with Tween-80
[17] = dose: 100.0 mg/kg/injection, schedule: Q01DX001 (ip), vehicle: saline with Tween-80
[18] = dose: 200.0 mg/kg/injection, schedule: Q01DX001 (ip), vehicle: saline with Tween-80
[19] = dose: 400.0 mg/kg/injection, schedule: Q01DX001 (ip), vehicle: saline with Tween-80
[20] = dose: 50.0 mg/kg/injection, schedule: Q01DX009 (ip), vehicle: saline with Tween-80
[21] = dose: 25.0 mg/kg/injection, schedule: Q01DX009 (ip), vehicle: saline
[22] = dose: 50.0 mg/kg/injection, schedule: Q01DX009 (ip), vehicle: saline

Measured: T/C

CC(O)C(NC(=O)OCc1ccccc1)C(=O)NC(CO)C(=O)NN (stereo not drawn) (Cbz-Thr-Ser-NHNH2; configuration not given here)
inactive: [1] 103 % of control | [2] 103 % of control | [3] 103 % of control | dose: 40.0 mg/kg/injection, schedule: Q01DX001 (ip), vehicle: saline 105 % of control | dose: 80.0 mg/kg/injection, schedule: Q01DX001 (ip), vehicle: saline 97 % of control | [4] 103 % of control and 98 % of control | [5] 95 % of control

COC1OC(COC(=O)c2ccccc2)C(OC(=O)c2ccccc2)C1OC(=O)c1ccccc1 (stereo not given)
inactive: [6] 101 % of control | [7] 92 % of control | [8] 90 % of control

CC(CCc1cccc2ccccc12)(C(=O)O)C(=O)O
inactive: [9] 92 % of control | [10] 104 % of control | [11] 104 % of control | [12] 100 % of control | [13] 94 % of control

Cn1c(=O)c2[nH]c(CCCSSCCCc3nc4c([nH]3)c(=O)n(C)c(=O)n4C)nc2n(C)c1=O
inactive: [4] 96 % of control | [5] 96 % of control | dose: 400.0 mg/kg/injection, schedule: Q01DX001 (ip), vehicle: saline 96 % of control

OCCNCc1ccccc1
inactive: [14] 93 % of control | dose: 100.0 mg/kg/injection, schedule: Q01DX009 (ip), vehicle: water 95 % of control | dose: 100.0 mg/kg/injection, schedule: Q04DX003 (ip), vehicle: water 104 % of control | [15] 102 % of control | dose: 200.0 mg/kg/injection, schedule: Q01DX009 (ip), vehicle: water 103 % of control | dose: 200.0 mg/kg/injection, schedule: Q04DX003 (ip), vehicle: water 102 % of control | [16] 86 % of control | dose: 400.0 mg/kg/injection, schedule: Q01DX009 (ip), vehicle: water 105 % of control | dose: 400.0 mg/kg/injection, schedule: Q04DX003 (ip), vehicle: water 102 % of control

CCc1cc(C)cc(OC(=O)Nc2ccc(Cl)c(Cl)c2)c1
inactive: [14] 97 % of control | [10] 91 % of control | [15] 92 % of control | [12] 90 % of control | [16] 94 % of control | [13] 91 % of control

CCOc1ccc(/C=N/NC(=O)c2ccc(O)c(OC)c2)cc1OC
inactive: [14] 103 % of control | [15] 92 % of control | [16] 96 % of control

Cc1cc(N(CCCl)CCCl)ccc1N=Nc1ccccc1C(=O)[O-].Cc1cc(N(CCCl)CCCl)ccc1N=Nc1ccccc1C(=O)[O-].[Cu+2]
inactive: dose: 2.0 mg/kg/injection, schedule: Q01DX015 (ip), vehicle: carboxymethylcellulose (CMC) 111 % of control | dose: 4.0 mg/kg/injection, schedule: Q01DX015 (ip), vehicle: carboxymethylcellulose (CMC) 117 % of control | dose: 8.0 mg/kg/injection, schedule: Q01DX015 (ip), vehicle: carboxymethylcellulose (CMC) 120 % of control | dose: 15.0 mg/kg/injection, schedule: Q01DX015 (ip), vehicle: carboxymethylcellulose (CMC) 123 % of control

Cc1cc(Cl)c(=O)n(-c2ccc(Cl)cc2)n1
inactive: dose: 50.0 mg/kg/injection, schedule: Q04DX003 (ip), vehicle: saline with Tween-80 109 % of control | [6] 103 % of control | [7] 98 % of control

CC(CCC(=O)O)C1CCC2C3CCC4CC(OC=O)CCC4(C)C3CC(=O)C12C (stereo not given)
inactive: [17] 98 % of control | [18] 95 % of control | [19] 101 % of control

Nc1nc(-c2cccs2)cc(C(F)(F)F)n1
inactive: [10] 94 % of control | [12] 94 % of control | [13] 102 % of control

O=Cc1cc([N+](=O)[O-])ccc1Cl
inactive: [20] 101 % of control | [14] 100 % of control | [6] 96 % of control | [15] 95 % of control | [7] 97 % of control

O=CNc1ccccc1[N+](=O)[O-]
inactive: [6] 94 % of control | [7] 94 % of control

CCC12CCC(=O)C=C1CCCC2=O (stereo not given)
inactive: [21] 100 % of control | [22] 97 % of control | dose: 100.0 mg/kg/injection, schedule: Q01DX009 (ip), vehicle: saline 90 % of control

CC1=CSCC(=O)N1
inactive: [14] 97 % of control | [15] 101 % of control | [16] 105 % of control

O=C1CCC(c2ccc3c(c2)CCCC3)O1 (stereo not given)
inactive: [20] 97 % of control | [14] 95 % of control | [6] 105 % of control | [15] 90 % of control | [7] 105 % of control | [8] 95 % of control

C#CCCCOC(=O)Nc1ccccc1
inactive: dose: 50.0 mg/kg/injection, schedule: Q01DX009 (ip), vehicle: Klucel (hydroxypropylcellulose) (HPC) 97 % of control | dose: 100.0 mg/kg/injection, schedule: Q01DX009 (ip), vehicle: Klucel (hydroxypropylcellulose) (HPC) 103 % of control | dose: 200.0 mg/kg/injection, schedule: Q01DX009 (ip), vehicle: Klucel (hydroxypropylcellulose) (HPC) 89 % of control

CCCC1(CC)CNC(=O)NC1=O (stereo not given)
inactive: dose: 100.0 mg/kg/injection, schedule: Q01DX Z (ip), vehicle: saline 97 % of control | dose: 200.0 mg/kg/injection, schedule: Q01DX Z (ip), vehicle: saline 92 % of control

C/C(=C\C(=O)O)c1ccc(-c2ccccc2)cc1
inactive: [17] 96 % of control | [18] 100 % of control | [19] 102 % of control

Cc1ccc(S(=O)(=O)NC(=O)OC/C=C/c2ccccc2)cc1
inactive: dose: 100.0 mg/kg/injection, schedule: Q01DX009 (ip), vehicle: alcohol 96 % of control | dose: 200.0 mg/kg/injection, schedule: Q01DX009 (ip), vehicle: alcohol 94 % of control | dose: 400.0 mg/kg/injection, schedule: Q01DX009 (ip), vehicle: alcohol 110 % of control

COc1ccc(/C=N/NC(=O)c2ccc(Cl)cc2Cl)cc1OC
inactive: [20] 103 % of control | [14] 88 % of control | [15] 92 % of control

S=C1SCCS1
inactive: [9] 98 % of control | [11] 95 % of control | dose: 400.0 mg/kg/injection, schedule: Q01DX009 (ip), vehicle: saline sonified 97 % of control

COc1cc2c3c(c1)C(O)CC[N+]3(C)CCC2 (stereo not given)
inactive: dose: 12.5 mg/kg/injection, schedule: Q01DX009 (ip), vehicle: saline 90 % of control | dose: 12.5 mg/kg/injection, schedule: Q04DX003 (ip), vehicle: saline 114 % of control | [21] 95 % of control | dose: 25.0 mg/kg/injection, schedule: Q04DX003 (ip), vehicle: saline 98 % of control | [22] 92 % of control | dose: 50.0 mg/kg/injection, schedule: Q04DX003 (ip), vehicle: saline 112 % of control

Cc1ccccc1[P+](Cc1ccccc1)(c1ccccc1)c1ccccc1
inactive: [1] 105 % of control | [2] 103 % of control | [3] 100 % of control

c1ccc(C2NC2(c2ccccc2)C2(c3ccccc3)SCCCS2)cc1 (stereo not given)
inactive: [10] 111 % of control | [12] 103 % of control | [13] 105 % of control

O=C1C=CC(=O)N1CCCN1C(=O)C=CC1=O
inactive: dose: 2.2 mg/kg/injection, schedule: Q01DX Z (ip), vehicle: methylcellulose (MC) 94 % of control | dose: 3.3 mg/kg/injection, schedule: Q01DX Z (ip), vehicle: methylcellulose (MC) 88 % of control | dose: 5.0 mg/kg/injection, schedule: Q01DX Z (ip), vehicle: methylcellulose (MC) 96 % of control

CSc1ccc(NC(=O)C(C)Oc2ccccc2)cc1 (stereo not given)
inactive: dose: 50.0 mg/kg/injection, schedule: Q01DX001 (ip), vehicle: saline with Tween-80 95 % of control | [17] 87 % of control and 92 % of control | [14] 97 % of control and 102 % of control | dose: 100.0 mg/kg/injection, schedule: Q04DX002 (ip), vehicle: saline with Tween-80 94 % of control and 96 % of control | [18] 87 % of control | [15] 93 % of control and 102 % of control | dose: 200.0 mg/kg/injection, schedule: Q04DX002 (ip), vehicle: saline with Tween-80 96 % of control and 105 % of control | [19] 87 % of control and 90 % of control | [16] 95 % of control and 98 % of control | dose: 400.0 mg/kg/injection, schedule: Q04DX002 (ip), vehicle: saline with Tween-80 96 % of control and 101 % of control
